# In patent publication US11472846B2, “Compositions and methods for treating diseases by inhibiting exosome release” (priority 2016, dated 2022):
# Like-named read-outs stand apart in the source and are kept apart here.
# How the values were obtained:
# Type in all cases: cell-based, human
# [1] = tested on: MCF-7 breast cancer cells; test: MTT proliferation assay, MCF-7; conditions: MCF-7 cells
# Experimental: (§1) 1-3. Viability and proliferation. Human breast cancer cell lines were seeded into 96-well plates (5000 cells/well) and treated for 24 hours with various concentrations of SMR peptides including PEG-SMRwt-Clu, PEG-SMRwt and PEG-SMRmut to determine IC50 (inhibition concentration). Cell proliferation was determined using the MTT assay (Molecular Devices, Sunnyvale, Calif.). Control experiments were performed with MTT treated cells alone and untreated cells, and on this basis, the incubation times of 24 hr and 48 hr were used for an MTT assay of peptide-treated cells (Stockerta JC. et al., 2012 and Riss TL. et al., 2015).
# (§2) 7-4. Cell proliferation and cytotoxicity assay. Human breast cancer cell lines MCF-7, MDAMB-231, and leukemia K562 cells, and non-tumorigenic MCF-10A cells are seeded into 96-well plates (5000 cells/well) and treated for 24 hours with 0-1120 nM SMRwt-CPP or SMRmut-CPP (FIG. 10). Cell proliferation was determined using the MTT [3-(4,5-dimethylthiazol-2-yl)-2,5-diphenyltetrazolium bromide] dye assay by SpectraMax M5 Fluorescence Plate Reader (Molecular Devices. Sunnyvale, Calif.). Cell viability was estimated by the conversion of yellow MTT by mitochondrial dehydrogenases of living cells to purple formazon (MTT assay). Control experiments were performed with cells treated or untreated with MTT, and on this basis, an incubation time of 24 hours was used for MTT assays of peptide-treated cells (Huang, M. B., et al., Oncotarget, 2017. 8(7): pp. 11302-11315.). Statistical significance of results was determined from three independent experiments including triplet or quadruplet sets in each experiment.
# [2] = tested on: MDA-MB-231 breast cancer cells; test: MTT proliferation assay, MDA-MB-231; conditions: MDA-MB-231 cells
# Experimental: as §1, §2
# [3] = tested on: MDA-MB-231 breast cancer cells; test: Exosome release by acetylcholinesterase (AchE) assay, MDA-MB-231; conditions: MDA-MB-231 cells, five-day treatment
# Experimental: (§3) 1-6. Exosome isolation and purification. Exosomes were isolated from breast cancer cells by differential centrifugation as previously described (Ali SA. et al., 2010). Untreated tumor cells were used as a control. Briefly, the above treated and untreated cell culture supernatants were centrifuged at 400×g for 10 minutes. The supernatants were transferred to a clear tube and centrifuged at 10,000×g for 30 minutes. The supernatants from the second spin were ultracentrifuged at 200,000×g for 2 hours to pellet exosomes. Finally, the exosome pellets were re-suspended with PBS and stored at 4° C. until used for analysis.
# (§4) 1-7. Exosome characterization by acetylcholinesterase (AchE) assay. Purified exosomes were quantitated by measurement of AchE as described (Ellman et al., 1961). Briefly, a 100 mM dithibionitrobenzoic (DTNB) solution was prepared for use as a stock color indicator, and a 28.9 mg/mL acetylthiocholine iodide in PBS solution was prepared as a stock substrate. The stock substrate stock can be stored at −20° C. up to one month, while the color indicator can be stored at 4° C. for two weeks. A working solution was prepared by mixing 10 mL of PBS with 200 μL of Substrate and 500 μl of DTNB. 50 μL of each exosome sample was transferred to 96 well microtitre plates, and a standard curve was prepared using AchE from 0.98 mU/mL to 2000 mU/mL. After 50 μL of standards were added into separate wells, 200 μL of the working solution was added to all wells. After 20 min incubation, AchE activity was measured at 450 nm using a SpectroMax M5 fluorimeter.
# (§5) 7-5. Exosome isolation and purification. Exosomes were isolated from breast cancer cells and leukemia cells using the ExoQuick-TC Exosome Precipitation Kit (System Biosciencences [SBI], Mountain View Calif.) or the miRCURY Exosome Isolation Kit (EXIQON, Woburn, Mass.) according to the manufacturer's instructions. Untreated tumor cells were used as a control. Briefly, treated and untreated cell culture supernatants (10 mL) were centrifuged at 3000×g for 15 minutes. The resulting supernatants were transferred to a clear tube, 2 mL of ExoQuick-TC buffer was added, mixed and incubated overnight at 4° C. Following the incubation, the sample contents were centrifuged at 1500×g for 30 minutes, the supernatants were aspirated off, the pellets were centrifuged at 1500×g for 5 minutes and any further traces of supernatant were removed (SBI). Alternatively, treated and untreated cell culture supernatants were centrifuged at 10,000×g for 5 minutes to remove cell debris, supernatants (10 ml) were transferred into new tubes, and 4 mL of precipitation buffer (EXIQON) was added, and the contents were mixed and incubated at 4° C. overnight. Following the incubation, the sample contents were centrifuged at 10,000×g for 30 minutes (EXIQON). Exosome-containing pellets were re-suspended in PBS and stored at 4° C. or −80° C.
# (§6) 7-6. Exosome characterization by acetylcholinesterase (AchE) assay. Purified exosomes were quantitated by measurement of AchE as previously described (Huang et al., Oncotarget, 2017. 8(7): pp. 11302-11315). Briefly, 100 mM dithibionitrobenzoic (DTNB) was prepared as a stock color indicator, and prepared a stock substrate containing 28.9 mg/mL of acetylthiocholine iodide in PBS. Substrate stock can be stored at −20° C. up to one month; the stock color indicator can be stored at 4° C. for two weeks. A working solution was prepared by mixing 10 mL of PBS with 200 μL of substrate and 500 μl of DTNB. 50 μL of each exosome sample was transferred to a 96 well microtitre plate, and a standard curve for AchE concentrations was prepared using AchE from 0.98 mU/mL to 2000 mU/mL. After 50 μL of standards were added into separate wells, 200 μL of the working solution was added to each well. After a 20 min incubation, AchE activity was measured at 450 nm using a SpectroMax M5 fluorometer (FIG. 11).
# [4] = tested on: MCF-7 breast cancer cells; test: Exosome release by acetylcholinesterase (AchE) assay, MCF-7; conditions: MCF-7 cells, five-day treatment
# Experimental: as §3, §4, §5, §6
# MDA-MB-231 cells = test: TUNEL apoptosis assay, MDA-MB-231; conditions: 48 hours, MKT-077 925 nM/mL, DMA 300 μM/mL, Omeprazole 200 μM/mL, paclitaxel 1.6 uM/mL, cisplatin 2 mg/mL
# Experimental: (§7) 7-8. Apoptosis assay by flow cytometry. For assessment of apoptosis, MCF-7 and MDA-MB-231 breast cancer cells and were seeded into 6-well plates at 4×10^5 cells per well and treated for 48 hours with 925 nM/mL of MKT-077 on MDA-MB-231 cells, 500 nM/mL of MKT-077 on MCF-7 cells, 337.5 nM/mL of MKT-077 on K562 cells, 300 μM/mL of DMA, 200 μM/mL of Omeprazole, 1.6 uM/mL of paclitaxel, 2 mg/mL of cisplatin, or combined treatment with either paclitaxel or cisplatin in combination with each of the three mortalin inhibitors. Apoptosis was determined using the TUNEL detection kit (Nexcelom, MA) and GUAVA easyCyte HT (EMD Millipore Corporation, Temecula, Calif.) system for fluorometric detection. (FIG. 13).
# [5] = tested on: exosomes from MCF-7 cells; test: Western blot of exosomal proteins (Alix, vimentin, mortalin), MCF-7; conditions: 48 hr treatment, vs negative controls
# Experimental: (§8) 7-7. Protein analysis by Western blotting. Exosomes were isolated from cell culture supernatants as described above. Protein concentrations were determined by measuring absorbance at 280 nm (Nanodrop 2000). Cultured cells were treated with PEG-SMR-Clu, SMR-CPP peptides, MKT-077, Omeprazole or DMA at 37° C. for 48 hr. To evaluate mortalin, vimentin and exosome expression, Western blot analysis was performed using anti-mortalin (Grp-75), anti-Vimentin and anti-Alix antibodies, respectively (FIG. 12).
# (§9) Exosomes and cell lysates were prepared by incubating 5-10 min at 95° C. in sample buffer. The lysates were subjected to SDS-PAGE under reducing conditions (150 mM DTT) in 4-20% Criterion™ TGX™ precast gels (BioRad, Hercules, Calif.) and then transferred onto a nitrocellulose membrane (Bio-Rad, Hercules, Calif.). Nitrocellulose membranes were blocked with 5% skim milk (MedSupply, Atlanta, Ga.) in TBS containing 0.05% Tween 20 (TBST) for 1 h at room temperature. The membranes were treated with anti-mortalin (Grp-75) mAb or anti-α-tubulin mAb for cell lysates (FIG. 15, Panels A and B) or with anti-Alix and anti-vimentin or anti-mortalin for exosomes (FIG. 12), followed by peroxidase-conjugated goat anti-mouse IgG. Bands were developed with an ECL chemiluminescent substrate (Santa Cruz Biotechnology, Santa Cruz, Calif.) and exposed to an ImageQuant LAS 4000 imaging system (GE Healthcare, Piscataway, N.J. 08854).
# K562 exosomes = test: Western blot of exosomal proteins (Alix, vimentin, mortalin), K562; conditions: K562 cells, 48 hr treatment
# Experimental: as §8, §9
# MDA-MB-231 exosomes = test: Western blot of exosomal proteins (Alix, vimentin, mortalin), MDA-MB-231; conditions: MDA-MB-231 cells, 48 hr treatment
# Experimental: as §8, §9
# K562 cells = test: TUNEL apoptosis assay, K562; conditions: 48 hours, MKT-077 337.5 nM/mL, DMA 300 μM/mL, Omeprazole 200 μM/mL, paclitaxel 1.6 uM/mL, cisplatin 2 mg/mL
# Experimental: as §7
# MCF-7 cells = test: TUNEL apoptosis assay, MCF-7; conditions: 48 hours, MKT-077 500 nM/mL, DMA 300 μM/mL, Omeprazole 200 μM/mL, paclitaxel 1.6 uM/mL, cisplatin 2 mg/mL
# Experimental: as §7
# [6] = 24 hours, MTT, read-out: 50% inhibition of cell growth
# [7] = 24 hours, read-out: SMR at IC50 concentration
Compound,apoptosis (TUNEL) (MDA-MB-231 cells) [%],Alix expression in exosomes [5],Mortalin expression in exosomes [5],Vimentin expression in exosomes [5],average AChE concentration day 1 to 5 [3] [mU/mL],Alix expression in exosomes (K562 exosomes),Mortalin expression in exosomes (K562 exosomes),Vimentin expression in exosomes (K562 exosomes),Vimentin expression in exosomes (MDA-MB-231 exosomes),apoptosis (TUNEL) (K562 cells) [%],apoptosis (TUNEL) (MCF-7 cells) [%],average AChE concentration days 1 to 5 [4] [mU/mL],other results
NXNVGFPVAAVGFPV (SEQ ID NO: 36) [PEG-SMRwt],,,,,,,,,,,,,"IC50 [1, 6]: 280 nM; IC50 [1, 7]: 280 nM; IC50 [2, 6]: 420 nM; IC50 [2, 7]: 420 nM"
"CC(=O)O[C@H]1C(=O)[C@@]2(C)[C@H]([C@H](OC(=O)c3ccccc3)[C@]3(O)C[C@H](OC(=O)[C@H](O)[C@@H](NC(=O)c4ccccc4)c4ccccc4)C(C)=C1C3(C)C)[C@]1(OC(C)=O)CO[C@@H]1C[C@@H]2O [paclitaxel, reference compound]",,,,,,,,,,,,,"IC50 ([1]; Homo sapiens, MCF7, data not shown, read-out: experimentally determined IC50 dosage): 1600 nM; IC50 ([2]; Homo sapiens, data not shown, read-out: experimentally determined IC50 dosage): 1600 nM"
SMRmut-CPP (AGFPVAAAGFPVGRKKRRQRRRPPQ) [SEQ ID NO: 41],,,,,,,,,,,,,"AChE initial increase on day 1 ([3]; day 1, mock 146.52): 141.47 mU/mL; AchE concentration on day 3 ([4]; day 3, mock 69.15): 66.05 mU/mL; AchE concentration, initial increase ([4]; days 1 and/or 2, mock 155.13): 150.06 mU/mL"
"CCn1c(=Cc2cccc[n+]2CC)sc(=C2Sc3ccccc3N2C)c1=O.[Cl-] [MKT-077, 1-Ethyl-2-[[3-ethyl-5-(3-methyl-2(3H)-benzothiazolylidene)-4-oxo-2-thiazolidinylidene]methyl]-pyridinium chloride]",52.13,significantly decreased,significantly decreased,significantly decreased,29,significantly decreased,significantly decreased,significantly,no significant change,82.7,90.1,22,Mortalin expression in exosomes (MDA-MB-231 exosomes): No significant change
"CN(C)c1nc(N)c(C(=O)NC(=N)N)nc1Cl [DMA, 5-(N,N-Dimethyl)amiloride]",30.43,not accompanied by significant reductions,no significant changes,significantly decreased,37,significantly decreased,significantly decreased,significantly,significantly decreased,15.2,11.83,26,
"COc1ccc2[nH]c([S+]([O-])Cc3ncc(C)c(OC)c3C)nc2c1 (stereo not shown) [Omeprazole, 5-Methoxy-2-[[(4-methoxy-3,5-dimethyl-2-pyridinyl)methyl]sulfinyl]-1H-benzimidazole]",3.0,not accompanied by significant reductions,no significant changes,significantly decreased,25,significantly decreased,significantly decreased,significantly,no significant change,6.1,1.1,26,Mortalin expression in exosomes (MDA-MB-231 exosomes): No significant change
"N.N.[Cl][Pt][Cl] [cisplatin, reference compound]",,,,,,,,,,,,,experimentally determined IC50 dosage ([1]; data not shown): 3000 µg/mL; experimentally determined IC50 dosage ([2]; data not shown): 2000 µg/mL
